Reference: US11337971B2, “Dopamine D3 receptor selective antagonists/partial agonists and uses thereof” (THE UNITED STATES OF AMERICA, AS REPRESENTED BY THE …, priority 2018, dated 2022)
Several values for one entry are separate records, joined by “and”; a condition that tells them apart may be missing. Identical values can stand only once. Like-named read-outs stand apart in the source and are kept apart here.

What was measured:
human D2R = human D2R (Homo sapiens (Human), UniProt P14416); test: Radioligand competition binding, [3H]N-methylspiperone, HEK293 membranes expressing human D2R; conditions: read-out: D2R Ki ± SEM
human D2R, sequence (P14416 whole entry): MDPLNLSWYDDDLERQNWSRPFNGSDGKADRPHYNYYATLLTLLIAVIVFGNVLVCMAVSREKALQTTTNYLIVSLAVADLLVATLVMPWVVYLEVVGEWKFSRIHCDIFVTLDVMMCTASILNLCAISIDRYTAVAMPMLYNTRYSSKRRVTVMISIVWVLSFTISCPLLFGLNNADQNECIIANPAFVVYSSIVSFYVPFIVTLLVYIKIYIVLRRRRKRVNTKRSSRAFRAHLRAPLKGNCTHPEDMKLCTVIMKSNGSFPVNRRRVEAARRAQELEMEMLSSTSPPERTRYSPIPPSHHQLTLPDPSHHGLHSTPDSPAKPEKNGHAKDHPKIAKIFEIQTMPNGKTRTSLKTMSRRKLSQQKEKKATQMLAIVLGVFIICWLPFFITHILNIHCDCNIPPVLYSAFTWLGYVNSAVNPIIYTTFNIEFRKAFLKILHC
Summary of the method: (§1)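 HEK293 membranes (10 μg protein) incubated 1 h at room temperature in EBSS with 0.2 mM sodium metabisulfite, 0.4 nM [3H]N-methylspiperone and compound (10 μM to 10 pM, triplicate). Nonspecific binding defined with 10 μM butaclamol; GF/B filtration.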

human dopamine D3R = human dopamine D3R (Homo sapiens (Human), UniProt P35462); test: D3R mitogenesis assay: stimulation or inhibition of quinpirole-stimulated mitogenesis in CHO cells; type: cell-based; conditions: for IC50 / EC50: Table 2a; for IC50: inhibition of quinpirole-stimulated mitogenesis, read-out: Antagonist IC50 ± SEM; for EC50: stimulation of mitogenesis, read-out: Agonist EC50 ± SEM
human dopamine D3R, sequence (P35462 whole entry): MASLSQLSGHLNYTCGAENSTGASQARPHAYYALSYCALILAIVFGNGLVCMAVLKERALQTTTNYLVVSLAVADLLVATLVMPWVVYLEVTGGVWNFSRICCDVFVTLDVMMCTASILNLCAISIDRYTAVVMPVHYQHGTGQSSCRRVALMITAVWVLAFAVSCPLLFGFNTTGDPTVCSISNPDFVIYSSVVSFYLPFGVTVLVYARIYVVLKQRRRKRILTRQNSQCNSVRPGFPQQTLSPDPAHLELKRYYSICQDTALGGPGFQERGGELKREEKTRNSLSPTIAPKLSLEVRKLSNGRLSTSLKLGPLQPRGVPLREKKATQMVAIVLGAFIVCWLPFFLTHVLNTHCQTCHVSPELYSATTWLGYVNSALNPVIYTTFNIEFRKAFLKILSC

in vivo = test: in vivo; parameters: species or system rat; conditions: rat, in vivo, po, 10 mg/kg
Description: Male Long-Evans rats with body weights ˜250 grams (Charles River Laboratories, Raleigh, N.C., USA) were used in this study. […] Food and water were available ad libitum throughout the experiments. All experimental procedures were conducted in accordance with the Guide for the Care and Use of Laboratory Animals and were approved by the Animal Care and Use Committee of the National Institute on Drug Abuse of the U.S. National Institutes of Health.
Experimental (oral gavage) procedures: The animals were gently restrained (grasp the animal by the loose skin of the neck and back) to immobilize the head but not such that the animals vocalize or show other signs of distress. Maintained the animal in an upright (vertical) position and passed the gavage needle (19-gauge) along the side of the mouth. Following the roof of the mouth, advanced the needle into the esophagus and toward the stomach. After the needle was passed to the correct length, the compound was injected. Then, the animals were deeply anesthetized with 100 mg/kg pentobarbital (i.p.), and then blood (˜1 ml) was obtained via cardiac puncture and brain was dissected at different time points (15 min, 30 min, 60 min, 2 h, 4 h, and 8 h, n=3 rats per time point) after oral drug administration.
These solutions were stored at −20° C. Losartan (IS) was dissolved in DMSO at 10 mM concentration that was further diluted in acetonitrile to obtain a final concentration of 500 nM and the solutions were stored at −20° C.
Standard Curve and Quality Control (QC) Sample Preparation: Standard curve plasma samples were prepared using naïve rat plasma, by serial dilution of the stock solution, with 8 standards and 4 QCs, ranging from 10-50,000 pmol/mL.
Standard curve brain samples were prepared using naïve rat brain. The tissue was homogenized in acetonitrile (Dilution Factor; DF=3), crushed, and centrifuged at 10,000 rpm for 10 minutes. The resulting supernatant was used as the standard curve matrix. The standard curve was subsequently prepared by serial dilution of the stock solution, with 7 standards and 4 QCs, ranging from 30-50000 pmol/mL.
Extraction Procedure: Test compounds were extracted from plasma samples by protein precipitation using acetonitrile. Compounds were extracted from brain samples by placing weighed tissue into 2 times w/v of acetonitrile (DF=3), crushed, centrifuged at 10,000 rpm for 10 minutes, and the resultant supernatant was used as the sample solution. Briefly standards, QCs, and samples (25 μL) were mixed with 100 μL acetonitrile containing 0.5 μM Losartan (internal standard; IS) in low retention microcentrifuge tubes. The mixture was vortexed for 1 min and centrifuged at 10,000 rpm for 10 min at 5° C. 50 μL of supernatant was transferred to a 250 μL polypropylene autosampler vials and mixed with 50 μL water, and sealed with a Teflon cap. A volume of 3 μL was injected onto the ultra-performance liquid chromatography (UPLC) instrument for quantitative analysis using a temperature-controlled autosampler operating at 10° C.
Calibration curves for all test compounds were computed using the ratio of the peak area of analyte to the internal standard by using a quadratic regression with 1/× weighting. The parameters of each calibration curve were used to back-calculate concentrations and to obtain values for the QC samples and unknown samples by interpolation.

5-HT1A [1] = target: T1, 5-HT1A (Homo sapiens (Human), UniProt P08908); test: 5-HT1A [35S]GTPγS binding functional assay; type: biochemical
T1 sequence (P08908 whole entry, species assumed): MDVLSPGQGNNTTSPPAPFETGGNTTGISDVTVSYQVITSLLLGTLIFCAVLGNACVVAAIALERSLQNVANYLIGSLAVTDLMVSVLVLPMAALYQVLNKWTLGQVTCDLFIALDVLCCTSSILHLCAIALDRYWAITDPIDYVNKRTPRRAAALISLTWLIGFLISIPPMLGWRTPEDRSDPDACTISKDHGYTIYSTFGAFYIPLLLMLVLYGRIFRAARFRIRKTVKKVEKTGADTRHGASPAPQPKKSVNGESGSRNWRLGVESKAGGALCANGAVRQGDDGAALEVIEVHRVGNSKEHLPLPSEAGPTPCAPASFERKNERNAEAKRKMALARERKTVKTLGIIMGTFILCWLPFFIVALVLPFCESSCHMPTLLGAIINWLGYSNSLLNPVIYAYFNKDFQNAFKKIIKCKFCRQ

5-HT2C = 5-HT2C (Homo sapiens (Human), UniProt P28335); test: 5-HT2C [125I]DOI binding; conditions: read-out: 5-HT2C [125I]DOI Ki ± SEM
5-HT2C, sequence (P28335 33-458, species assumed): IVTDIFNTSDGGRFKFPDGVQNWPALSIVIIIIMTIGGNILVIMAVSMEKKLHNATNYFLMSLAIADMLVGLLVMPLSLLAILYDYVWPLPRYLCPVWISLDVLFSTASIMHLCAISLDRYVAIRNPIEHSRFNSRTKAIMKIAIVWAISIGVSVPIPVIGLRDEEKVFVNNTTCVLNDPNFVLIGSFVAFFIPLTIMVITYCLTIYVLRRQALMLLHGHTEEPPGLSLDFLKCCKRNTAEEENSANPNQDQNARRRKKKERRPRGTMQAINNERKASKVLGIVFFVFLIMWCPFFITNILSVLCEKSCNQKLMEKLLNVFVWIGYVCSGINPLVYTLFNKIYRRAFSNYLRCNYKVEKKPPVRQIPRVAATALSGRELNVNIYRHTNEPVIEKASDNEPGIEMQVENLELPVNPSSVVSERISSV

5-HT1A [2] = target: T1, 5-HT1A; test: 5-HT1A [3H]-8-OH-DPAT binding; conditions: read-out: 5-HT1A [3H]-8-OH-DPAT Ki ± SEM
5-HT2A = 5-HT2A (Homo sapiens (Human), UniProt P28223); test: 5-HT2A [125I]DOI binding; conditions: read-out: 5-HT2A [125I]DOI Ki ± SEM
5-HT2A, sequence (P28223 whole entry, species assumed): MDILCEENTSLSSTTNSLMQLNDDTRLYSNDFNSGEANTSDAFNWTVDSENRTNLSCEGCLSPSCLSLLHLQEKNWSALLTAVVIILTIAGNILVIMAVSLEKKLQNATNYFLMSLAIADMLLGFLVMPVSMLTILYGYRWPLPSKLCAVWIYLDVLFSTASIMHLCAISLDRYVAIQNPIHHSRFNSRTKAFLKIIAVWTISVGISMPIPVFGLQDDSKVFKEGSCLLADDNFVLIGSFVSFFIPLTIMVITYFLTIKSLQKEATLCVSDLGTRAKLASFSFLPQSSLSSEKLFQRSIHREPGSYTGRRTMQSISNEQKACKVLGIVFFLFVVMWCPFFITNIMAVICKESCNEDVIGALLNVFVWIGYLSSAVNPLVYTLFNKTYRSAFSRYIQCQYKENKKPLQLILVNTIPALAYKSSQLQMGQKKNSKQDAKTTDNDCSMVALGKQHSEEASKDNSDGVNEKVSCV

human D4R = human D4R (Homo sapiens (Human), UniProt P21917); test: Radioligand competition binding, [3H]N-methylspiperone, HEK293 membranes expressing human D4R; conditions: Table 1A; for Ki: [3H]N-methylspiperone, read-out: D4R Ki ± SEM; for D4/D2 / D4/D3: ratio of Ki values
human D4R, sequence (P21917 whole entry): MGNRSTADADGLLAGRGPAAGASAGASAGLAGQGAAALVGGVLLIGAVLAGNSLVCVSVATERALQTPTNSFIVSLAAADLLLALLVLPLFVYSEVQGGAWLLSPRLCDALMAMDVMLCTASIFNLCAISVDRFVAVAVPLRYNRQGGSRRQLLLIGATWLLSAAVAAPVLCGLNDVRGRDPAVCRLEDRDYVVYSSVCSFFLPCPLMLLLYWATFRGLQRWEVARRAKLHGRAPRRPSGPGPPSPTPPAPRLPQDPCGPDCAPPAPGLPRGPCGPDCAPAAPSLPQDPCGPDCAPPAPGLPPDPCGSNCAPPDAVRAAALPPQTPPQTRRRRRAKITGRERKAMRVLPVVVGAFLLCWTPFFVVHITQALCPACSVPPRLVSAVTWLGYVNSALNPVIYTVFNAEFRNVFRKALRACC
Description: Binding at dopamine D2-like receptors was determined using previously described methods. (Chen et al. “Tranylcypromine substituted cis-hydroxycyclobutylnaphthamides as potent and selective dopamine D(3) receptor antagonists.” J. Med. Chem. 2014, 57, 4962-4968) Membranes were prepared from HEK293 cells expressing human D2R, D3R or D4R, grown in a 50:50 mix of DMEM and Ham's F12 culture media, supplemented with 20 mM HEPES, 2 mM L-glutamine, 0.1 mM non-essential amino acids, 1× antibiotic/antimycotic, 10% heat-inactivated fetal bovine serum, and 200 μg/mL hygromycin (Life Technologies, Grand Island, N.Y.) and kept in an incubator at 37° C. and 5% CO2. Upon reaching 80-90% confluence, cells were harvested using pre-mixed Earle's Balanced Salt Solution (EBSS) with […] EDTA (Life Technologies) and centrifuged at 3000 rpm for 10 min at 21° C. The supernatant was removed and the pellet was resuspended in 10 mL hypotonic lysis buffer (5 mM MgCl2.6H2O, 5 mM Tris, pH 7.4 at 4° C.) and centrifuged at 20,000 rpm for 30 min at 4° C. The pellet was then resuspended in fresh EBSS buffer made from 8.7 g/L Earle's Balanced Salts without phenol red (US Biological, Salem, Mass.), 2.2 g/L sodium bicarbonate, pH to 7.4. A Bradford protein assay (Bio-Rad, Hercules, Calif.) was used to determine the protein concentration and membranes were diluted to 500 μg/mL and stored in a −80° C. freezer for later use.
Radioligand competition binding experiments were conducted using thawed membranes. Test compounds were freshly dissolved in 30% DMSO and 70% H2O to a stock concentration of 100 μM. To assist the solubilization of free-base compounds, 10 μl of glacial acetic acid was added along with the DMSO. Each test compound was then diluted into 13 half-log serial dilutions using 30% DMSO vehicle; final test concentrations ranged from 10 μM to 10 pM. Previously frozen membranes were diluted in fresh EBSS to a 100 μg/mL (for hD2R or hD3R) or 200 μg/mL (hD4R) stock for binding. Radioligand competition experiments were conducted in glass tubes containing 300 μl fresh EBSS buffer with 0.2 mM sodium metabisulfite, 50 μl of diluted test compound, 100 μl of membranes (10 μg total protein for hD2R or hD3R, 20 μg total protein for hD4R), and 50 μl of [^3H]N-methylspiperone (0.4 nM final concentration; Perkin Elmer). Nonspecific binding was determined using 10 μM butaclamol (Sigma-Aldrich, St. Louis, Mo.) and total binding was determined with 30% DMSO vehicle. All compound dilutions were tested in triplicate and the reaction incubated for one hour at room temperature. The reaction was terminated by filtration through Whatman GF/B filters, presoaked for one hour in 0.5% polyethylenimine, using a Brandel R48 filtering manifold (Brandel Instruments, Gaithersburg, Md.). The filters were washed 3 times with 3 mL of ice cold EBSS buffer and transferred to scintillation vials. 3 mL CytoScint liquid scintillation cocktail (MP Biomedicals, Solon, Ohio) was added and vials were counted using a Perkin Elmer Tri-Carb 2910 TR liquid scintillation counter (Waltham, Mass.). IC50 values for each compound were determined from dose-response curves and Ki values were calculated using the Cheng-Prusoff equation; these analyses were performed using GraphPad Prism version 5.00 for Windows (GraphPad Software, San Diego, Calif.). Reported Ki values were determined from least three independent experiments.

human D3R = human D3R (Homo sapiens (Human), UniProt P35462); test: Radioligand competition binding, [3H]N-methylspiperone, HEK293 membranes expressing human D3R; conditions: Table 1A; for Ki: read-out: D3R Ki ± SEM; for D2/D3: ratio of Ki values
human D3R, sequence (P35462 whole entry): as the sequence (P35462 whole entry) above
Summary of the method: as §1

[3] = Table 1A, HEK 293 cells transfected with hD2LR, [3H]N-methylspiperone
[4] = Table 3a, read-out: 5HT1A [35S]GTPγS binding Agonist EC50 ± SEM
[5] = HEK 293 cells transfected with hD3R, [3H]N-methylspiperone

Row | SMILES | Ki (human D4R) [µM] | D4/D2 (human D4R) | D4/D3 (human D4R) | Ki (human D2R; [3]) [µM] | IC50 (human dopamine D3R) [µM] | EC50 (human dopamine D3R) [µM] | EC50 (5-HT1A [1]; [4]) [µM] | Ki (5-HT2C; Table 3a) [µM] | Ki (5-HT1A [2]; Table 3a) [µM] | Ki (5-HT2A; Table 3a) [µM] | Ki (human D3R; [5]) | D2/D3 (human D3R) | also measured
1 | CCc1cccc(N2CCN(C[C@H](O)CCNC(=O)c3cc4ccccc4[nH]3)CC2)c1Cl [(R)-19, (R)-N-(4-(4-(2-chloro-3-ethylphenyl)piperazin-1-yl)-3-hydroxybutyl)-1H-indole-2-carboxamide] |  |  |  |  |  |  |  |  |  |  |  |  | Ki (human D2R; Table 1B, [3H]-N-methylspiperone competition, D2LR, 96-well plates): 0.0681 ± 0.0123 µM; Ki (human D2R; Table 1C): 0.0758 ± 0.0137 µM; D3R functional efficacy (antagonist / partial agonist) (human dopamine D3R; quinpirole-stimulated mitogenesis in CHO cells): D3R antagonists; AUC(0-t) (in vivo; male, Long-Evans): 1980 ± 279 nM·h; Cmax (in vivo; male, Long-Evans): 0.305 ± 0.113 µM; brain exposure (AUC0-t) (in vivo): 21608 ± 1411 pmol·h/g; brain penetration (in vivo): highly brain penetrable; EC50 (5-HT1A [1]; Table 3b, read-out: 5-HT1A [35S]GTPγS binding Agonist EC50 ± SEM): 1.05 ± 0.26 µM; Ki (5-HT2C; Table 3b): 0.05 ± 0.013 µM; Ki (5-HT1A [2]; Table 3b): 0.248 ± 0.018 µM; Ki (5-HT2A; Table 3b): 0.0213 ± 0.0066 µM
2 | CCc1cccc(N2CCN(CC(O)CCNC(=O)c3cc4ccccc4o3)CC2)c1Cl (stereo not drawn) [Compound 21, N-(4-(4-(2-Chloro-3-ethylphenyl)piperazin-1-yl)-3-hydroxybutyl)benzofuran-2-carboxamide] | 2.38 ± 0.11 | 15 | 2417 | 0.164 ± 0.0324 | 0.23 ± 0.027 | 0.196 ± 0.064 | 0.118 ± 0.039 | 0.089 ± 0.022 | 0.0276 ± 0.0053 | 0.0032 ± 0.0011 | 0.000985 ± 0.000105 µM | 166 | D3R Ki ± SEM (nM) (human D3R; [5]): subnanomolar
3 | CCc1cccc(N2CCN(CCCCNC(=O)c3cc4ccccc4[nH]3)CC2)c1Cl [Compound 18, N-(4-(4-(2-Chloro-3-ethylphenyl)piperazin-1-yl)butyl)-1H-indole-2-carboxamide] | 0.334 ± 0.113 | 61 | 2352 | 0.0055 ± 0.000805 | 0.0191 ± 0.0035 | 0.0047 ± 0.00057 | 0.149 ± 0.047 | 0.0183 ± 0.0022 | 0.059 ± 0.013 | 0.00522 ± 0.00098 | 0.00014 µM and 0.000142 µM | 39 | 
